Assay results: PubChem BioAssay AID330 (DTP/NCI, 2004)
Toxic doses and inconclusive results are not listed. How the source made its calls: active means survival T/C of 150% or more; inactive means T/C below 125% in these data. Square brackets hold non-standard residues; d marks the D form. Peptide text beside a SMILES is read from it. ξ: configuration not given here. ξL = CC(C)CC(N)C(=O)O

Tested on: P388 leukemia ip, CD2F1 mice, survival T/C
Assay: NCI In Vivo Anticancer Drug Screen. Data for tumor model P388 Leukemia (intraperitoneal) in CD2F1 (CDF1) mice
Settings: endpoint: median survival time, higher = longer survival
Outline: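 Mice carrying the transplanted tumor received test compound or vehicle. Survival was recorded in each group, and the value is the treated-group measurement divided by that of the vehicle-treated control group.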

[1] = dose: 60.0 mg/kg/injection, schedule: Q01DX005 (ip), vehicle: saline with Tween-80
[2] = dose: 120.0 mg/kg/injection, schedule: Q01DX005 (ip), vehicle: saline with Tween-80
[3] = dose: 12.5 mg/kg/injection, schedule: Q01DX009 (ip), vehicle: saline with Tween-80
[4] = dose: 25.0 mg/kg/injection, schedule: Q01DX009 (ip), vehicle: saline with Tween-80

Measured: T/C

CC1=NC(=O)CC2=C1C(C)N(Cc1ccccc1)C2=O (stereo unspecified)
inactive: dose: 50.0 mg/kg/injection, schedule: Q01DX009 (ip), vehicle: saline 98 % of control | dose: 100.0 mg/kg/injection, schedule: Q01DX009 (ip), vehicle: saline 94 % of control | dose: 200.0 mg/kg/injection, schedule: Q01DX009 (ip), vehicle: saline 99 % of control

Nc1nnc(-c2ccc(Nc3nc4ccccc4[nH]3)c([N+](=O)[O-])c2)s1
inactive: [1] 98 % of control | [2] 101 % of control

NC(N)=NCCCC(N=C1C=CC(=NC(CCCN=C(N)N)C(=O)O)C=C1)C(=O)O (stereo unspecified)
inactive: dose: 50.0 mg/kg/injection, schedule: Q04DX002 (ip), vehicle: distilled water + alcohol 99 % of control | dose: 100.0 mg/kg/injection, schedule: Q04DX002 (ip), vehicle: distilled water + alcohol 101 % of control | dose: 200.0 mg/kg/injection, schedule: Q04DX002 (ip), vehicle: distilled water + alcohol 104 % of control | dose: 400.0 mg/kg/injection, schedule: Q04DX002 (ip), vehicle: distilled water + alcohol 107 % of control | dose: 600.0 mg/kg/injection, schedule: Q04DX002 (ip), vehicle: distilled water + alcohol 108 % of control

Cc1ccc(S(=O)(=O)/C=C/C(=O)c2ccc3ccccc3c2)cc1
inactive: dose: 100.0 mg/kg/injection, schedule: Q04DX003 (ip), vehicle: saline 103 % of control | dose: 200.0 mg/kg/injection, schedule: Q04DX003 (ip), vehicle: saline 103 % of control | dose: 400.0 mg/kg/injection, schedule: Q04DX003 (ip), vehicle: saline 100 % of control

O=S(=O)(C(Br)CBr)C(Br)CBr (stereo unspecified)
inactive: dose: 6.25 mg/kg/injection, schedule: Q01DX009 (ip), vehicle: saline with Tween-80 113 % of control | [3] 118 % of control | [4] 122 % of control

CCOC(=O)C1Cc2nc(-c3ccccc3)ncc2C1=O (stereo unspecified)
inactive: [3] 107 % of control | [4] 107 % of control | dose: 50.0 mg/kg/injection, schedule: Q01DX009 (ip), vehicle: saline with Tween-80 101 % of control

CCCNC(=O)ON1C(=O)C2C3C=CC(C3)C2C1=O (stereo unspecified)
inactive: dose: 6.25 mg/kg/injection, schedule: Q01DX005 (ip), vehicle: Klucel (hydroxypropylcellulose) (HPC) 96 % of control | dose: 12.5 mg/kg/injection, schedule: Q01DX005 (ip), vehicle: Klucel (hydroxypropylcellulose) (HPC) 104 % of control | dose: 25.0 mg/kg/injection, schedule: Q01DX005 (ip), vehicle: Klucel (hydroxypropylcellulose) (HPC) 96 % of control

CCCCCCCOC(=O)c1cc2cc(C(CC)C(CC)c3ccc(O)cc3)ccc2oc1=O (stereo unspecified)
inactive: [1] 105 % of control | [2] 92 % of control | dose: 240.0 mg/kg/injection, schedule: Q01DX005 (ip), vehicle: saline with Tween-80 95 % of control

COc1cc2c(c3oc(=O)cc(CCC(=O)O)c13)C1CC(=O)OC1O2 (stereo unspecified)
inactive: dose: 8.75 mg/kg/injection, schedule: Q01DX005 (ip), vehicle: Klucel (hydroxypropylcellulose) (HPC) 101 % of control | dose: 17.5 mg/kg/injection, schedule: Q01DX005 (ip), vehicle: Klucel (hydroxypropylcellulose) (HPC) 100 % of control | dose: 35.0 mg/kg/injection, schedule: Q01DX005 (ip), vehicle: Klucel (hydroxypropylcellulose) (HPC) 97 % of control

NNc1ccc(Cl)nn1
inactive: dose: 7.5 mg/kg/injection, schedule: Q01DX005 (ip), vehicle: saline with Tween-80 101 % of control | dose: 15.0 mg/kg/injection, schedule: Q01DX005 (ip), vehicle: saline with Tween-80 99 % of control

CC(C)CC(NC(=O)CN)C(=O)NCC(=O)NCC(=O)O (stereo unspecified) (H-G[ξL]GG-OH)
inactive: dose: 50.0 mg/kg/injection, schedule: Q01DX005 (ip), vehicle: Klucel (hydroxypropylcellulose) (HPC) 100 % of control | dose: 100.0 mg/kg/injection, schedule: Q01DX005 (ip), vehicle: Klucel (hydroxypropylcellulose) (HPC) 102 % of control | dose: 200.0 mg/kg/injection, schedule: Q01DX005 (ip), vehicle: Klucel (hydroxypropylcellulose) (HPC) 95 % of control

CCN(CC)c1ccc2c(-c3ccccc3C(=O)O)c3ccc(=[N+](CC)CC)cc-3oc2c1
inactive: dose: 5.0 mg/kg/injection, schedule: Q01DX009 (ip), vehicle: saline with Tween-80 104 % of control | dose: 10.0 mg/kg/injection, schedule: Q01DX009 (ip), vehicle: saline with Tween-80 104 % of control | dose: 20.0 mg/kg/injection, schedule: Q01DX009 (ip), vehicle: saline with Tween-80 100 % of control
